Results reported in US7652047B2, “Phenylamino isothiazole carboxamidines as MEK inhibitors” (Ardea Biosciences, Inc., priority 2005, dated 2010).

Target: T1, MEK1^CA (human GST-MEK1, constitutively active, Ser218Asp and Ser222Asp) (Homo sapiens, UniProt Q02750, S218D/S222D)
T1 construct: GST; made in house; host or cells: Escherichia coli
Assay: MEK1 enzymatic activity assay (MEK1^CA / ERK2 / MBP, [γ-33P]ATP incorporation)
Format: biochemical
Conditions: Table 1, compounds of formula I; read-out: Avg IC50
Text: Materials and preparation of reagents: Human GST-MEK1 and the constitutively active allele GST-MEK1^CA (harboring the mutations Ser218Asp and Ser222Asp) were subcloned into the […] expression vector pGEM4Z (Promega, Madison, Wis.) from the wild type human MEK1 cDNA. GST-MEK1^CA was expressed in Escherichia coli and partially purified using Glutathione Sepharose 4B affinity resin (Amersham Pharmacia Biotech, Piscataway, N.J.). The ERK2 allele was subcloned from MAPK2/Erk2 cDNA (wild type) in pUSEamp (Upstate Biotechnology, Inc., Waltham, Mass.) into the vector pET21a (Novagen, Madison, Wis.) resulting in an N-terminal histidine-tagged mouse ERK2 allele. […] Myelin basic protein (MBP) was purchased from Gibco BRL (Rockville, Md.). EasyTides adenosine 5′-triphosphate (ATP) ([γ-^33P]) (NEN Perkin Elmer, Wellesley, Mass.) was the source of radiolabel for all kinase reactions. Activated Raf-1 (truncated) and activated MAPKinase 2/ERK2 were purchased from Upstate, Inc. (Lake Placid, N.Y.). 4-20% Criterion Precast gels were purchased from Bio-Rad (Hercules, Calif.).
A typical 25-microliter assay contained 0.002 nanomoles MEK1^CA, 0.02 nanomoles ERK2, 0.25 nanomoles MBP, 0.25 nanomoles unlabeled ATP, and 0.1 μCi [γ^33P] ATP. The screening assay essentially comprised four additions. Five μl of diluted compound were dispensed to 96-well assay plates. Ten μl of 2.5× enzyme cocktail (MEK1^CA and ERK2 only) were then added to each well followed by a pre-incubation for 30 minutes at ambient temperature. […] Finally, 100 μl of 10% trichloroacetic acid (TCA) were added and incubated for 30 minutes at room temperature to halt the reaction and precipitate radiolabeled protein products. Reaction products were harvested on glass fiber 96 well filter plates prewetted with water and 1% pyrophosphate. The filter plate was then washed 5 times with water. Water was displaced by absolute ethanol and the plate was allowed to air dry for 30 minutes at room temperature. A back seal was applied manually and 40 μl of scintillation cocktail were dispensed to each well. A top seal was applied and the plate was counted in the TopCount for two seconds per well.

T1 sequence (Q02750 whole entry S218D/S222D): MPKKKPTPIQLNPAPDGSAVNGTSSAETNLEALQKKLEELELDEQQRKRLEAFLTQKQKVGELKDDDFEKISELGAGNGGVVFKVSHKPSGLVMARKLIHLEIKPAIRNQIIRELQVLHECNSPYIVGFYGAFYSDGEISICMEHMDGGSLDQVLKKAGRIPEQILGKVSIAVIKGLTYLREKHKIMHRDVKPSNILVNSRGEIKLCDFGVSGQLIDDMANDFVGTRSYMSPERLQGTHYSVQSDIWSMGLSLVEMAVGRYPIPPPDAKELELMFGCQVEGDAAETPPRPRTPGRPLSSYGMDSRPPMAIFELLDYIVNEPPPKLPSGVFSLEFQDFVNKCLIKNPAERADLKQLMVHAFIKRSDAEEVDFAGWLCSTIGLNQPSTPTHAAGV

| SMILES | IC50 [nM] |
| --- | --- |
| CC(=O)Nc1ccc(Oc2ccc(Nc3snc(O)c3C(=N)NCC(O)CO)cc2)cc1 (centres unmarked) [compound 145] | > 500 |
| N=C(NCCO)c1c(O)nsc1Nc1ccc(Cc2ccccc2)cc1 [compound 146] | > 500 |
| CN1CCCC1CCNC(=N)c1c(O)nsc1Nc1ccc(Oc2ccccc2)cc1 (centres unmarked) [compound 148] | > 500 |
| Oc1nsc(Nc2ccc(Oc3ccccc3)cc2)c1-c1noc(-c2ccccc2)n1 [compound 149] | > 500 |
| CC(=O)NC(=N)c1c(O)nsc1Nc1ccc(Oc2ccccc2)cc1 [compound 150] | > 500 |
| Cc1ccc(S(=O)(=O)NC(=N)c2c(O)nsc2Nc2ccc(Oc3ccccc3)cc2)cc1 [compound 151] | > 500 |
| N=C(NCCCCO)c1c(O)nsc1Nc1ccc(Oc2ccc(Cl)cc2)cc1 [compound 158] | 100 to 500 |
| CCC[C@H]1CC[C@H](c2ccc(Nc3snc(O)c3C(=N)NC(C)C)cc2)CC1 [compound 160] | 100 to 500 |
| CCC[C@H]1CC[C@H](c2ccc(Nc3snc(O)c3C(=N)NCCO)cc2)CC1 [compound 161] | > 500 |
| N#CNC(=N)c1c(O)nsc1Nc1ccc(Oc2ccccc2)cc1 [compound 162] | > 500 |
| CC(C)C[C@H](CO)NC(=N)c1c(O)nsc1Nc1ccc(Oc2ccccc2)cc1 [compound 163] | 100 to 500 |
| CCC[C@H]1CC[C@H](c2ccc(Nc3snc(O)c3C(=N)NCC(C)(C)CO)cc2)CC1 [compound 165] | 100 to 500 |
| N=C(N[C@@H]1CCCC[C@H]1O)c1c(O)nsc1Nc1ccc(Oc2ccccc2)cc1 [compound 167] | 100 to 500 |
| N=C(N[C@H](CO)CC1CCCCC1)c1c(O)nsc1Nc1ccc(Oc2ccccc2)cc1 [compound 168] | > 500 |
| CC(C)NC(=N)c1c(O)nsc1Nc1ccc(Oc2cncnc2)cc1 [compound 169] | 100 to 500 |
| CC(C)NC(=N)c1c(O)nsc1Nc1ccc(C2CCCCC2)cc1 [compound 170] | 100 to 500 |
| N=C(NCCO)c1c(O)nsc1Nc1ccc(Oc2cncnc2)cc1 [compound 171] | > 500 |
| N=C(NCCO)c1c(O)nsc1Nc1ccc(C2CCCCC2)cc1 [compound 172] | > 500 |
| CC[C@@H](CO)NC(=N)c1c(O)nsc1Nc1ccc(Oc2ccccc2)cc1 [compound 176] | 100 to 500 |
| CC[C@H](CO)NC(=N)c1c(O)nsc1Nc1ccc(Oc2ccccc2)cc1 [compound 177] | 100 to 500 |
| CC(C)C(CO)NC(=N)c1c(O)nsc1Nc1ccc(Oc2ccccc2)cc1 (centres unmarked) [compound 179] | 100 to 500 |
| CC(C)(C)C(CO)NC(=N)c1c(O)nsc1Nc1ccc(Oc2ccccc2)cc1 (centres unmarked) [compound 180] | 100 to 500 |
| COc1ccc(Nc2snc(O)c2-c2nnn[nH]2)c(OC)n1 [compound 181] | > 500 |
| N=C(NCc1ccc(C(F)(F)F)nc1)c1c(O)nsc1Nc1cccc(Oc2ccccc2)c1 [compound 182] | 100 to 500 |
| COc1ccc(Nc2snc(O)c2C(=N)NCc2ccc(C(F)(F)F)nc2)c(OC)n1 [compound 184] | > 500 |

| SMILES | IC50 [nM] |
| --- | --- |
| CC(=O)Oc1nsc(Nc2ccc(Oc3ccccc3)cc2)c1C(=N)NC(C)C [compound 185] | 100 to 500 |
| N=C(NCC(O)CO)c1c(O)nsc1Nc1ccc(C2CCCCC2)cc1 (centres unmarked) [compound 186] | > 500 |
| CCCCCCCCCCOCC(O)CNC(=N)c1c(O)nsc1Nc1ccc(Oc2ccccc2)cc1 (centres unmarked) [compound 187] | > 500 |
| CC(C)(CO)NC(=N)c1c(O)nsc1Nc1ccc(Oc2ccccc2)cc1 [compound 188] | 100 to 500 |
| N=C(NCC1(O)CCCCC1)c1c(O)nsc1Nc1ccc(Oc2ccccc2)cc1 [compound 189] | 100 to 500 |
| N=C(NC1(CO)CCCC1)c1c(O)nsc1Nc1ccc(Oc2ccccc2)cc1 [compound 190] | 100 to 500 |
| CC(CO)NC(=N)c1c(O)nsc1Nc1ccc(Oc2ccc(Cl)cc2)cc1 (centres unmarked) [compound 191] | 100 to 500 |
| N=C(NCCO)c1c(O)nsc1Nc1ccc(Oc2ccc(Cl)cc2)cc1 [compound 192] | 100 to 500 |
| CCC[C@H]1CC[C@H](c2ccc(Nc3snc(O)c3C(=N)NC[C@@H](O)CO)cc2)CC1 [compound 193] | > 500 |
| CCn1sc(Nc2ccc(Oc3ccccc3)cc2)c(C(=N)NC(C)C)c1=O [compound 194] | > 500 |
| CC(C)C(=O)O[C@H]1CC[C@H](c2ccc(Nc3snc(O)c3C(=N)NCC(O)CO)cc2)CC1 (some centres unmarked) [compound 195] | > 500 |
| N=C(NCC(O)CO)c1c(O)nsc1Nc1ccc([C@H]2CC[C@H](O)CC2)cc1 (some centres unmarked) [compound 196] | > 500 |
| CC(C)NC(=N)c1c(O)nsc1Nc1ccc([C@H]2CC[C@H](OC(=O)C(C)C)CC2)cc1 [compound 197] | 100 to 500 |
| CCCNC(=N)c1c(O)nsc1Nc1ccc(Oc2ccccc2)cc1 [compound 201] | 100 to 500 |
| N=C(NCC(O)O)c1c(O)nsc1Nc1ccc(Oc2ccc(F)cc2)cc1 [compound 203] | > 500 |
| N=C(NCCO)c1c(O)nsc1Nc1ccc(Oc2ccc(F)cc2)cc1 [compound 204] | > 500 |
| CC(C)NC(=N)c1c(O)nsc1Nc1ccc(Oc2ccc(F)cc2)cc1 [compound 205] | 100 to 500 |
| CC(CO)NC(=N)c1c(O)nsc1Nc1ccc(Oc2ccc(F)cc2)cc1 (centres unmarked) [compound 206] | > 500 |
| N=C(NCCO)c1c(O)nsc1Nc1ccc(Oc2ccc(F)cc2)c(Br)c1 [compound 207] | > 500 |
| N=C(NCC(O)O)c1c(O)nsc1Nc1ccc(Oc2ccc(F)cc2)c(Br)c1 [compound 208] | > 500 |
| CC(CO)NC(=N)c1c(O)nsc1Nc1ccc(Oc2ccc(F)cc2)c(Br)c1 (centres unmarked) [compound 209] | 100 to 500 |
| N=C(NCC(O)O)c1c(O)nsc1Nc1ccc(Oc2ccccc2Cl)cc1 [compound 210] | 100 to 500 |
| CC(CO)NC(=N)c1c(O)nsc1Nc1ccc(Oc2ccccc2Cl)cc1 (centres unmarked) [compound 211] | > 500 |
| CC(C)NC(=N)c1c(O)nsc1Nc1ccc(Oc2ccccc2Cl)cc1 [compound 212] | 100 to 500 |

Second part, the compound after the results:

| IC50 [nM] | SMILES |
| --- | --- |
| 100 to 500 | CN(O)C(=N)c1c(O)nsc1Nc1ccc(Oc2ccccc2)cc1 [compound 139] |
| 1 to 100 | N=C(NCC1CCCCC1)c1c(O)nsc1Nc1ccc(Oc2ccc(Cl)cc2)cc1 [compound 140] |
| 100 to 500 | COc1ccc(Oc2ccc(Nc3snc(O)c3C(=N)NCC3CCCCC3)cc2)cc1 [compound 141] |
| 1 to 100 | N=C(NCC1CCCCC1)c1c(O)nsc1Nc1ccc(Oc2ccc(F)cc2)cc1 [compound 142] |
| 1 to 100 | CC(C)(CO)CNC(=N)c1c(O)nsc1Nc1ccc(Oc2ccccc2)cc1 [compound 143] |
| 1 to 100 | CC(C)N(O)C(=N)c1c(O)nsc1Nc1ccc(Oc2ccccc2)cc1 [compound 144] |
| 100 to 500 | CN(C)CCNC(=N)c1c(O)nsc1Nc1ccc(Oc2ccccc2)cc1 [compound 147] |
| 1 to 100 | N=C(N[C@H]1CC[C@H](O)CC1)c1c(O)nsc1Nc1ccc(Oc2ccccc2)cc1 [compound 152] |
| 100 to 500 | CCC(CO)NC(=N)c1c(O)nsc1Nc1ccc(Oc2ccccc2)cc1 (centres unmarked) [compound 153] |
| 1 to 100 | CC(CO)/N=C(\N)c1c(O)nsc1Nc1ccc(Oc2ccccc2)cc1 (centres unmarked) [compound 154] |
| 100 to 500 | N=C(N[C@@H]1CCC[C@H]1O)c1c(O)nsc1Nc1ccc(Oc2ccccc2)cc1 [compound 155] |
| 100 to 500 | CC(O)CNC(=N)c1c(O)nsc1Nc1ccc(Oc2ccccc2)cc1 (centres unmarked) [compound 156] |
| 100 to 500 | CCCCC(CO)NC(=N)c1c(O)nsc1Nc1ccc(Oc2ccccc2)cc1 (centres unmarked) [compound 157] |
| 1 to 100 | C[C@H](NC(=N)c1c(O)nsc1Nc1ccc(Oc2ccccc2)cc1)[C@@H](O)c1ccccc1 [compound 159] |
| 1 to 100 | N=C(NC(CO)CO)c1c(O)nsc1Nc1ccc(Oc2ccccc2)cc1 [compound 164] |
| 1 to 100 | N=C(NCC(O)c1cccc(O)c1)c1c(O)nsc1Nc1ccc(Oc2ccccc2)cc1 (centres unmarked) [compound 166] |
| 1 to 100 | CC(C)(C)NC(=N)c1c(O)nsc1Nc1ccc(Oc2ccccc2)cc1 [compound 173] |
| 1 to 100 | C[C@@H](CO)NC(=N)c1c(O)nsc1Nc1ccc(Oc2ccccc2)cc1 [compound 174] |
| 1 to 100 | C[C@H](CO)NC(=N)c1c(O)nsc1Nc1ccc(Oc2ccccc2)cc1 [compound 175] |
| 1 to 100 | COCC(C)NC(=N)c1c(O)nsc1Nc1ccc(Oc2ccccc2)cc1 (centres unmarked) [compound 178] |
| 1 to 100 | CC(C)NC(=N)c1c(O)nsc1Nc1ccc(Oc2ccc(Cl)cc2)cc1 [compound 183] |
| 1 to 100 | CNC(=N)c1c(O)nsc1Nc1ccc(Oc2ccccc2)cc1 [compound 198] |
| 1 to 100 | CCNC(=N)c1c(O)nsc1Nc1ccc(Oc2ccccc2)cc1 [compound 199] |
| 1 to 100 | C=CCNC(=N)c1c(O)nsc1Nc1ccc(Oc2ccccc2)cc1 [compound 200] |
| 1 to 100 | CC(C)CNC(=N)c1c(O)nsc1Nc1ccc(Oc2ccccc2)cc1 [compound 202] |
